# Assay results reported in US6096749A, “Pyrrolopyrimidine derivatives having pharmacological activity” (Novartis Corporation, priority 1994, dated 2000).
# pIC50: −log10 of the molar value. Where “and” joins values, the source holds several entries; their conditions need not be identical. Equal entries are not always repeated.
# Molecular target: T1, EGF-R ICD (Homo sapiens, UniProt P00533)
# T1 construct: recombinant intracellular domains of the EGF-receptor (EGF-R ICD)
# Assay: Inhibitory action on EGF-R ICD (intracellular domains of the EGF receptor) tyrosine protein kinase, Test A
# Assay type: biochemical
# Settings: Example 32, table 3; concentration at which inhibition is half the maximum inhibition; read-out: IC50 (inhibitory action on the intracellular domains of EGF-R (ICD))
# Text: Test A) Inhibitory action on EGF-R ICD (ICD=intracellular domains): The test system is described above. The result is given as IC50 in μM (concentration of active ingredient at which inhibition is half the maximum inhibition).
# The test system is described above. The result is given as IC50 in μM (concentration of active ingredient at which inhibition is half the maximum inhibition).
# T1 sequence (P00533 669-1210 limits assumed): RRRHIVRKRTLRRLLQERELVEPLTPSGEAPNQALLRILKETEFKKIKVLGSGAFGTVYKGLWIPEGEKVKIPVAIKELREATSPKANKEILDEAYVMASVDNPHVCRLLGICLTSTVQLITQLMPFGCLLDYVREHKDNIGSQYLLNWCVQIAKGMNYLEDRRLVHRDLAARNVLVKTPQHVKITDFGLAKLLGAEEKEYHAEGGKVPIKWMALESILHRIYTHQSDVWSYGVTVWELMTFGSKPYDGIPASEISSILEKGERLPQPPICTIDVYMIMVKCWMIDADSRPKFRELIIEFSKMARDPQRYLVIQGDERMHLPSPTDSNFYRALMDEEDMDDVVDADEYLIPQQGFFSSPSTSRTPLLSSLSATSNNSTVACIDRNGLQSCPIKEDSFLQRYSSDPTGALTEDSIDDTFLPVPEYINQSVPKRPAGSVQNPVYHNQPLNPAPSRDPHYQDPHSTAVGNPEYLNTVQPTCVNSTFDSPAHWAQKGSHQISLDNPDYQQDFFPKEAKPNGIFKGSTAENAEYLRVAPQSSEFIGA
row,pIC50,SMILES
1,6.46,"COc1cccc(Nc2ncnc3[nH]c4c(c23)CCCC4)c1 [Example 11, 4-(m-Methoxyanilino)-5,6-tetramethylene-7H-pyrrolo[2,3-d]pyrimidine]"
2,6.24,"Cc1cccc(Nc2ncnc3[nH]c(C)c(C)c23)c1 [Example 5, 4-(m-Methylanilino)-5,6-dimethyl-7H-pyrrolo[2,3-d]pyrimidine]"
3,7.82,"COc1ccc(-c2cc3c(Nc4cccc(Cl)c4)ncnc3[nH]2)cc1 [Example 26, 4(m-Chloroanilino)-6-(4-methoxyphenyl)-7H-pyrrolo[2,3-d]pyrimidine]"
4,6.44,"FC(F)(F)c1cccc(Nc2ncnc3[nH]c4c(c23)CCCC4)c1 [Example 14, 4-(m-Trifluoromethylanilino)-5,6-tetramethylene-7H-pyrrolo[2,3-d]-pyrimidine]"
5,7.34,"Brc1cccc(Nc2ncnc3[nH]c4c(c23)CCCC4)c1 [Example 8, 4-(m-Bromoanilino)-5,6-tetramethylene-7H-pyrrolo[2,3-d]pyrimidine]"
6,6.82,"Clc1ccc(Nc2ncnc3[nH]c4c(c23)CCCC4)cc1Cl [Example 15, 4-(m,p-Dichloroanilino)-5,6-tetramethylene-7H-pyrrolo[2,3-d]pyrimidine]"
7,6.09,"Cc1cccc(Nc2ncnc3[nH]c4c(c23)CCCC4)c1 [Example 10, 4-(m-Methylanilino)-5,6-tetramethylene-7H-pyrrolo[2,3-d]pyrimidine]"
8,7.72,"COc1ccccc1-c1cc2c(Nc3cccc(Cl)c3)ncnc2[nH]1 [Example 31, 4-(m-Chloroanilino)-6-(2-methoxyphenyl)-7H-pyrrolo[2,3-d]pyrimidine]"
9,6.37,"COc1ccc(-c2[nH]c3ncnc(Nc4cccc(Cl)c4)c3c2C)cc1 [Example 29, 4-(m-Chloroanilino)-5-methyl-6-(4-methoxyphenyl)-7H-pyrrolo[2,3-d]-pyrimidine]"
10,6.70,"Fc1cccc(Nc2ncnc3[nH]c4c(c23)CCCC4)c1 [Example 9, 4-(m-Fluoroanilino)-5,6-tetramethylene-7H-pyrrolo[2,3-d]pyrimidine]"
11,6.77,"Cc1[nH]c2ncnc(Nc3cc(Cl)cc(Cl)c3)c2c1C [Example 4, 4-(m,m-Dichloroanilino)-5,6-dimethyl-7H-pyrrolo[2,3-d]pyrimidine]"
12,5.75,"COc1cccc(-c2cc3c(Nc4cccc(Cl)c4)ncnc3[nH]2)c1 [Example 30, 4-(m-Chloroanilino)-6-(3-methoxyphenyl)-7H-pyrrolo[2,3-d]pyrimidine]"
13,7.02 and 7.48,"Brc1cccc(Nc2ncnc3[nH]c(-c4ccccc4)c(-c4ccccc4)c23)c1 [Example 13, 4-(m-Bromoanilino)-5,6-diphenyl-7H-pyrrolo[2,3-d]pyrimidine]"
14,6.26,"Cc1[nH]c2ncnc(Nc3cccc(F)c3)c2c1C [Example 3, 4-(m-Fluoroanilino)-5,6-dimethyl-7H-pyrrolo[2,3-d]pyrimidine]"
15,7.60,"Cc1[nH]c2ncnc(Nc3cccc(Br)c3)c2c1C [Example 2, 4-(m-Bromoanilino)-5,6-dimethyl-7H-pyrrolo[2,3-d]pyrimidine]"
16,7.48,"COc1ccc(OC)c(-c2cc3c(Nc4cccc(Cl)c4)ncnc3[nH]2)c1 [Example 27, 4-(m-Chloroanilino)-6-(2,5-dimethoxyphenyl)-7H-pyrrolo[2,3-d]-pyrimidine]"
17,7.89,"Clc1cccc(Nc2ncnc3[nH]c(-c4ccccc4)cc23)c1 [Example 28, 4-(m-Chloroanilino)-6-(phenyl)-7H-pyrrolo[2,3-d]pyrimidine]"

# Same assay, conditions: concentration at which inhibition is half the maximum inhibition; Examples 16 to 22; read-out: IC50 (Test A: inhibitory action on EGF-R ICD)
row,pIC50,SMILES
1,5.80,"Cc1[nH]c2ncnc(Nc3ccccc3F)c2c1C [Example 19, 4-(o-Fluoroanilino)-5,6-dimethyl-7H-pyrrolo[2,3-d]pyrimidine]"
2,6.96,"Cc1ccc(Nc2ncnc3[nH]c4c(c23)CCCC4)cc1 [Example 22, 4-(4-Methylanilino)-5,6-tetramethylene-7H-pyrrolo[2,3-d]pyrimidine]"
3,5.72,"Cc1ccc(Nc2ncnc3[nH]c(C)c(C)c23)cc1 [Example 17, 4-(p-Methylanilino)-5,6-dimethyl-7H-pyrrolo[2,3-d]pyrimidine]"
4,6.25,"Cc1[nH]c2ncnc(Nc3ccc(F)cc3)c2c1C [Example 20, 4-(p-Fluoroanilino)-5,6-dimethyl-7H-pyrrolo[2,3-d]pyrimidine]"
5,7.15,"Cc1[nH]c2ncnc(Nc3ccc(Cl)c(Cl)c3)c2c1C [Example 18, 4-(m,p-Dichloroanilino)-5,6-dimethyl-7H-pyrrolo[2,3.d]pyrimidine]"

# System: BALB/c mouse keratinocyte cell line (MK cells)
# Assay: Inhibitory action on the growth of MK cells (BALB/MK), Test B
# Assay type: cell-based
# Settings: 72 h, three days incubation, methylene blue staining, Examples 16 to 22
# Description: The test compounds (dissolved in DMSO) are added in a series of concentrations (dilution series), so that the final concentration of DMSO is not grater than 1% (v/v). […] The growth of the MK cells is measured by means of methylene blue staining: after incubation, the cells are fixed with glutaraldehyde, washed with water and stained with 0.05% methylene blue. […] IC50 values are calculated by means of a computer-assisted system using the formula:
# IC50 =(ODtest -ODstart)/(ODcontrol
# Test B) Inhibitory action on the growth of MK cells: The test system is described in detail above. The result is given as IC50 in μM (concentration of active ingredient at which inhibition is half the maximum inhibition).
row,SMILES,pIC50
1,"Cc1[nH]c2ncnc(Nc3ccccc3F)c2c1C [Example 19, 4-(o-Fluoroanilino)-5,6-dimethyl-7H-pyrrolo[2,3-d]pyrimidine]",4.31
2,"Cc1ccc(Nc2ncnc3[nH]c4c(c23)CCCC4)cc1 [Example 22, 4-(4-Methylanilino)-5,6-tetramethylene-7H-pyrrolo[2,3-d]pyrimidine]",4.86
3,"Cc1ccc(Nc2ncnc3[nH]c(C)c(C)c23)cc1 [Example 17, 4-(p-Methylanilino)-5,6-dimethyl-7H-pyrrolo[2,3-d]pyrimidine]",4.61
4,"Cc1[nH]c2ncnc(Nc3ccc(F)cc3)c2c1C [Example 20, 4-(p-Fluoroanilino)-5,6-dimethyl-7H-pyrrolo[2,3-d]pyrimidine]",4.88
5,"Cc1[nH]c2ncnc(Nc3ccc(Cl)c(Cl)c3)c2c1C [Example 18, 4-(m,p-Dichloroanilino)-5,6-dimethyl-7H-pyrrolo[2,3.d]pyrimidine]",4.46
